This note sets out measurements from patent US10975068B2, “6-aminopyridin-3-yl thiazoles as modulators of RORγT” (Janssen Pharmaceutica NV, priority 2016, dated 2021).

Like-named read-outs stand apart in the source and are kept apart here.

Experiment [1] has as its target human RORγt ligand binding domain (RORγt LBD) (Homo sapiens (Human), UniProt P51449). Kind of experiment: RORγt ThermoFluor® assay (thermal shift binding). Conditions: read-out: ThermoFluor® Assay, Kd. An outline of the steps: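 Binding was inferred from thermal stabilisation (ΔTm) of the E. coli-expressed RORγt LBD (0.065 mg/mL), monitored by 1,8-ANS (60 μM) emission at 500 nm during a 1 °C/min ramp. Buffer was Hepes 100 mM pH 7.0 with NaCl, GSH and Tween-20.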

For experiment [2], the target named is full-length human RORγt (Homo sapiens (Human), UniProt P51449). Kind of experiment: RORγt (full-length human) reporter assay, Conditions B or C. As to conditions: for inhibition at 3 µM: at 3 μM compound concentration, read-out: RORγt (FL) Reporter Assay B or C, % inhibition; for RORγt (FL) Reporter Assay B or C, % inhibition (value marked *): marked *: footnote not given. It counts as cell-based. The method in brief:
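Readout is dual luciferase: firefly (GAL4-driven) normalized to DMSO-only and saturating-reference controls, then to CMV-Renilla. Full-length human RORγt fused to GAL4-DBD was transiently expressed in HEK293T; compound exposure ran overnight (16-20 h) starting 4-6 h after transfection, final FBS 1.3%, DMSO 0.1%.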
Background: In a reporter assay the amount or activity of a reporter protein is the signal.

[3] abbreviates: Conditions B or C, read-out: RORγt (FL) Reporter Assay B or C, IC50.
Setting [4] is: read-out: RORγt (FL) Reporter Assay B or C, IC50.

Chain of full-length human RORγt (P51449 other isoform, or with tags, fused parts or gaps): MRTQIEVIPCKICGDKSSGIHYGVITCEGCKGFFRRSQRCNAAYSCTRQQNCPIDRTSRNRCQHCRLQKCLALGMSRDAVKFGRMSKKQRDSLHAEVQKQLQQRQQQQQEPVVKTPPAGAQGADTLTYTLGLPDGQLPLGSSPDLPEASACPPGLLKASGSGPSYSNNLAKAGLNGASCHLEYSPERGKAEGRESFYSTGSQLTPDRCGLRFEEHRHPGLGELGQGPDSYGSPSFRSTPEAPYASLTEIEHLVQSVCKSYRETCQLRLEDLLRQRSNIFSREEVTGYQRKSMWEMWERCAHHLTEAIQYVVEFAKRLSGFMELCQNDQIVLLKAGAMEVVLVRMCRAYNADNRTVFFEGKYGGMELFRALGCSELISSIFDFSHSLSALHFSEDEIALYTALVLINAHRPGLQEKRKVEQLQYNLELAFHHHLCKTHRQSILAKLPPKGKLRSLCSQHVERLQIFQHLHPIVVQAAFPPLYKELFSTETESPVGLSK
Chain of human RORγt ligand binding domain (RORγt LBD) (P51449 other isoform, or with tags, fused parts or gaps): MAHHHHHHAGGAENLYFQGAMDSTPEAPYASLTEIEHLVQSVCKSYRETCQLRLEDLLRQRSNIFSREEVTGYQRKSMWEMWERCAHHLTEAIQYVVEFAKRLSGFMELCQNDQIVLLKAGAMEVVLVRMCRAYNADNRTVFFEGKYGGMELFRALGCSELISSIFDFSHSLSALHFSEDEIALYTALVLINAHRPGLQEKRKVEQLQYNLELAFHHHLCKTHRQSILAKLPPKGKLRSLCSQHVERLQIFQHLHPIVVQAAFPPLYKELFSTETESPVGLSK

`O=C(N[C@@H]1CC[C@@H](O)C1)c1nc(C(=O)N2C3CCC2CC3)c(-c2cnc(N[C@@H](C3CC3)C(F)(F)F)cc2C(F)F)s1` [Example 437, 4-((1s,4s)-7-Azabicyclo[2.2.1]heptane-7-carbonyl)-5-[6-[[(1S)-1-cyclopropyl-2,2,2-trifluoro-ethyl]amino]-4-(difluoromethyl)-3-pyridyl]-N-[(1R,3R)-3-hydroxycyclopentyl]thiazole-2-carboxamide]: the Kd in experiment [1] stood at 0.44 nM. The compound further yielded an IC50 in experiment [2] (RORγt (FL) Reporter Assay B or C, IC50) of 16 nM. Also, the inhibition at 3 µM in experiment [2] was found to be 90%.
On to `CC[C@H](Nc1cc(C(F)(F)F)c(-c2sc(C(=O)NCC(C)(C)O)nc2C(=O)N2CC(F)(F)C[C@@H]2C)cn1)C(F)(F)F` [Example 102, 4-((S)-4,4-Difluoro-2-methylpyrrolidine-1-carbonyl)-N-(2-hydroxy-2-methylpropyl)-5-(6-(((S)-1,1,1-trifluorobutan-2-yl)amino)-4-(trifluoromethyl)pyridin-3-yl)thiazole-2-carboxamide], for which the dissociation constant (Kd) in experiment [1] worked out at 0.99 nM. Also, in experiment [2] (Conditions B or C), the “RORγt (FL) Reporter Assay B or C, % inhibition (value marked *)” value (“RORγt … % inhibition (value marked *)” for short) is given as 116* %. The IC50 in experiment [2] (setting [3]) came to 17 nM.
For `C[C@@H](O)[C@@H](C)NC(=O)c1nc(C(=O)N2CCC[C@@H]2C)c(-c2cnc(NC(C)(C)C)cc2C(F)(F)F)s1` (relative stereo) [Example 237, 5-(6-(tert-Butylamino)-4-(trifluoromethyl)pyridin-3-yl)-N-((2R*,3R*)-3-hydroxybutan-2-yl)-4-((S)-2-methylpyrrolidine-1-carbonyl)thiazole-2-carboxamide], the dissociation constant Kd in experiment [1] worked out at 2.3 nM. Moreover, the “RORγt … % inhibition (value marked *)” value in experiment [2] (Conditions B or C) was 101* %. Also, the IC50 in experiment [2] (setting [3]) worked out at 31 nM.
In the case of `C[C@H]1CCCN1C(=O)c1nc(C(=O)NCC(C)(C)O)sc1-c1cnc(N[C@@H]2CCCC2(F)F)cc1C(F)(F)F` (single isomer, unassigned) [Example 280, 5-(6-(((R*)-2,2-Difluorocyclopentyl)amino)-4-(trifluoromethyl)pyridin-3-yl)-N-(2-hydroxy-2-methylpropyl)-4-((S)-2-methylpyrrolidine-1-carbonyl)thiazole-2-carboxamide], the dissociation constant (Kd) in experiment [1] worked out at 4.9 nM. Further, the inhibition at 3 µM in experiment [2] came out at 110%. Moreover, in experiment [2] (setting [4]), the IC50 stood at 16 nM.
Take `CC[C@@H](Nc1cc(C(F)F)c(-c2sc(C(=O)NCC(C)(C)O)nc2C(=O)N2CCC[C@@H]2C)cn1)C1CC1` (relative stereo) [Example 167, 5-(6-(((R*)-1-Cyclopropyl)amino)-4-(difluoromethyl)pyridine-3-yl)-N-(2-hydroxy-2-methylpropyl)-4-((S)-2-methylpyrrolidine-1-carbonyl)thiazole-2-carboxamide]: in experiment [1], the equilibrium dissociation constant (Kd) is 3.7 nM. Besides, in experiment [2] (Conditions B or C), the “RORγt … % inhibition (value marked *)” value was 100* %. The IC50 in experiment [2] (setting [3]) is 120 nM.
For `CCC(C)(C)Nc1cc(C(F)F)c(-c2sc(C(=O)NCC(C)(C)O)nc2C(=O)N2CCCC[C@@H]2C)cn1` [Example 95, (S)-5-(4-(Difluoromethyl)-6-(tert-pentylamino)pyridin-3-yl)-N-(2-hydroxy-2-methylpropyl)-4-(2-methylpiperidine-1-carbonyl)thiazole-2-carboxamide], the Kd in experiment [1] was 0.15 nM. In addition, in experiment [2] (Conditions B or C), the “RORγt … % inhibition (value marked *)” value is given as 109* %. Besides, in experiment [2] (setting [3]), the IC50 was determined as 9.5 nM.
For `C[C@H]1CCCN1C(=O)c1nc(C(=O)NCC(C)(C)O)sc1-c1cnc(NC2(C(F)(F)F)CCC2)cc1C(F)F` [Example 123, (S)-5-(4-(Difluoromethyl)-6-((1-(trifluoromethyl)cyclobutyl)amino)pyridin-3-yl)-N-(2-hydroxy-2-methylpropyl)-4-(2-methylpyrrolidine-1-carbonyl)thiazole-2-carboxamide], in that order: 1.9 nM, 105* % and 13 nM.
In the case of `C[C@H]1CC(F)(F)CN1C(=O)c1nc(C(=O)N[C@H](C)C(C)(C)O)sc1-c1cnc(N[C@@H](C2CC2)C(F)(F)F)cc1C(F)F` [Example 314, 5-(6-(((S)-1-Cyclopropyl-2,2,2-trifluoroethyl)amino)-4-(difluoromethyl)pyridin-3-yl)-4-((S)-4,4-difluoro-2-methylpyrrolidine-1-carbonyl)-N—((R)-3-hydroxy-3-methylbutan-2-yl)thiazole-2-carboxamide], the equilibrium dissociation constant (Kd) in experiment [1] stood at 1.4 nM. In experiment [2], the inhibition at 3 µM amounted to 101%. In addition, the concentration for half-maximal inhibition (IC50) in experiment [2] (setting [4]) was 35 nM.
On to `CC[C@@H](Nc1cc(C(F)F)c(-c2sc(C(=O)N[C@H]3C[C@H](O)C3)nc2C(=O)N2CCC[C@@H]2C)cn1)C(F)(F)F` [Example 205, 5-(4-(Difluoromethyl)-6-(((1R)-1-(trifluoromethyl)propyl)amino)-3-pyridyl)-N-((1r,3S)-3-hydroxycyclobutyl)-4-((2S)-2-methylpyrrolidine-1-carbonyl)thiazole-2-carboxamide], for which the Kd in experiment [1] amounted to 6.8 nM. In experiment [2] (Conditions B or C), the “RORγt … % inhibition (value marked *)” value is on record as 103* %. Moreover, the IC50 in experiment [2] (setting [3]) was 33 nM.
Regarding `CC[C@H](Nc1cc(C(F)F)c(-c2sc(C(=O)N[C@H]3CCC[C@@H]3O)nc2C(=O)N2CC(F)(F)C[C@@H]2C)cn1)C(F)(F)F` [Example 419, 4-[(2S)-4,4-Difluoro-2-methyl-pyrrolidine-1-carbonyl]-5-[4-(difluoromethyl)-6-[[(1S)-1-(trifluoromethyl)propyl]amino]-3-pyridyl]-N-[(1S,2S)-2-hydroxycyclopentyl]thiazole-2-carboxamide], the Kd in experiment [1] was 0.21 nM. The inhibition at 3 µM in experiment [2] came to 84%. Further, the half-maximal inhibitory concentration (IC50) in experiment [2] (setting [4]) is 34 nM.
For `C[C@H](Nc1cc(C(F)F)c(-c2sc(C(=O)NC3CN(S(C)(=O)=O)C3)nc2C(=O)N2CCC[C@@H]2C)cn1)C(F)(F)F` [Example 409, 5-[4-(Difluoromethyl)-6-[[(1S)-2,2,2-trifluoro-1-methyl-ethyl]amino]-3-pyridyl]-4-[(2S)-2-methylpyrrolidine-1-carbonyl]-N-(1-methylsulfonylazetidin-3-yl)thiazole-2-carboxamide], in that order: 6.3 nM, 103% and 36 nM.
Turning to `C[C@H]1CCCN1C(=O)c1nc(C(=O)NCC(C)(C)O)sc1-c1cnc(NCC(C)(C)C)cc1C(F)F` [Example 113, (S)-5-(4-(Difluoromethyl)-6-(neopentylamino)pyridin-3-yl)-N-(2-hydroxy-2-methylpropyl)-4-(2-methylpyrrolidine-1-carbonyl)thiazole-2-carboxamide], in experiment [1], the dissociation constant (Kd) turned out to be 6 nM. Moreover, the “RORγt … % inhibition (value marked *)” value in experiment [2] (Conditions B or C) is on record as 110* %. For the same compound, in experiment [2] (setting [3]), the IC50 was determined as 63 nM.
Take `C[C@H]1CCCN1C(=O)c1nc(C(=O)N[C@H]2CCC[C@@H]2O)sc1-c1cnc(NC(C)(C)C)cc1C(F)F` [Example 396, 5-[6-(tert-Butylamino)-4-(difluoromethyl)-3-pyridyl]-N-[(1S,2S)-2-hydroxycyclopentyl]-4-[(2S)-2-methylpyrrolidine-1-carbonyl]thiazole-2-carboxamide]: the Kd in experiment [1] is 1.1 nM. The inhibition at 3 µM in experiment [2] amounted to 96%. Moreover, the IC50 in experiment [2] (setting [4]) stood at 21 nM.
As for `C[C@H]1CCCN1C(=O)c1nc(C(=O)N[C@@H]2CC[C@H]2O)sc1-c1cnc(NC(C)(C)C)cc1C(F)F` (relative stereo) [Example 403, 5-(6-(tert-Butylamino)-4-(difluoromethyl)pyridin-3-yl)-N-(1R*,2R*)-2-hydroxycyclobutyl)-4-((S)-2-methylpyrrolidine-1-carbonyl)thiazole-2-carboxamide], the equilibrium dissociation constant (Kd) in experiment [1] stood at 4.5 nM. Also, in experiment [2], the inhibition at 3 µM amounted to 108%. In experiment [2] (setting [4]), the half-inhibitory concentration (IC50) was 36 nM.
With `C[C@H]1CCCN1C(=O)c1nc(C(=O)N[C@H](C)C(C)(C)O)sc1-c1cnc(N[C@H](C2CC2)C(F)(F)F)cc1C(F)F` [Example 332, 5-(6-(((R)-1-Cyclopropyl-2,2,2-trifluoroethyl)amino)-4-(difluoromethyl)pyridin-3-yl)-N—((R)-3-hydroxy-3-methylbutan-2-yl)-4-((S)-2-methylpyrrolidine-1-carbonyl)thiazole-2-carboxamide], the Kd in experiment [1] came out at 1.5 nM. Also, in experiment [2], the inhibition at 3 µM turned out to be 107%. In experiment [2] (setting [4]), the concentration for half-maximal inhibition (IC50) came out at 89 nM.
As to `C[C@H]1CC(F)(F)CN1C(=O)c1nc(C(=O)N[C@H](C)C(C)(C)O)sc1-c1cnc(NC(C)(C)C)cc1C(F)F` [Example 256, 5-[6-(tert-Butylamino)-4-(difluoromethyl)-3-pyridyl]-4-[(2S)-4,4-difluoro-2-methyl-pyrrolidine-1-carbonyl]-N-[(1R)-2-hydroxy-1,2-dimethyl-propyl]thiazole-2-carboxamide], the equilibrium dissociation constant (Kd) in experiment [1] was 1.7 nM. In experiment [2], the inhibition at 3 µM came to 123%. Also, the IC50 in experiment [2] (setting [4]) amounted to 20 nM.
For `CC(C)(O)CNC(=O)c1nc(C(=O)N2CCC(F)CC2)c(-c2cnc(NC3CCCCC3(F)F)cc2C(F)(F)F)s1` (stereo not drawn) [Example 26, 5-(6-((2,2-Difluorocyclohexyl)amino)-4-(trifluoromethyl)pyridin-3-yl)-4-(4-fluoropiperidine-1-carbonyl)-N-(2-hydroxy-2-methylpropyl)thiazole-2-carboxamide], the dissociation constant (Kd) in experiment [1] stood at 9.5 nM. For the same compound, the half-maximal inhibitory concentration (IC50) in experiment [2] (setting [3]) came out at 37 nM. For the same compound, the inhibition at 6 µM in experiment [2] (read-out: RORγt (FL) Reporter Assay B or C, % inhibition @ 6 μM, Conditions B or C, @ 6 μM) came out at 111%.

As usually defined, the Kd is the concentration at which binding is half-saturated. A word on the IC50: it is the point on the concentration scale where inhibition reaches its midpoint. As a reminder, the inhibition is the change of the read-out against control, counted positive when it falls.
